Assay [1] addresses human IL-17A / human IL-17RA (Homo sapiens (Human), UniProt Q16552). Kind of assay: Human IL-17A biochemical assay (HTRF, blocking of IL-17A binding to IL-17RA). To be noted: 0.4 nM IL-17A, 0.3 nM IL-17RA, max compound concentration 10 uM. In short, it runs like this: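 HTRF readout (ex337, em620/665 nm ratio) after anti-6His Tb cryptate and anti-human IgG-XL665 detection, 1 h RT. Beforehand, 0.4 nM IL-17A sat with compound 3 h RT, then 0.3 nM IL-17RA 1 h. IC50 by four-parameter logistic fit.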
A general note: Time-resolved FRET reads energy transfer from a long-lived donor to a nearby acceptor.

In assay [2] the test system is IL-17-induced GROα secretion from HT-29 cells. Kind of assay: GROα release assay in human colorectal adenocarcinoma epithelial cell (HT-29, ELISA). To be noted: 10 ng/mL IL-17A, highest concentration 10 μM, read-out: Cellular assay HT29 cell/CXCL1 IC50. Type of assay: cell-based. The gist of the method: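 IC50 values come from four-parameter fits of GROα levels, quantified by ELISA (450 nm, standard curve) in supernatants. Compounds, 4-fold serially diluted from 10 μM, were mixed 15 min with IL-17A (10 ng/mL final) before 48 h incubation with HT-29 cells at 37°C.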
(An ELISA detects its analyte on a solid surface through an enzyme-linked reagent.)

The structures appear in SMILES notation. Read-outs that look alike come from different tables or passages of the source.

human IL-17A / human IL-17RA, sequence (Q16552 24-155): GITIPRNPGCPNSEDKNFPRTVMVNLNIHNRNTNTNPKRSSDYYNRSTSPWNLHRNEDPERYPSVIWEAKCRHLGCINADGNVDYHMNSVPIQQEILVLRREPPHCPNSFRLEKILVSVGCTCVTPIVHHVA

As for `Cn1nccc1C(=O)N[C@H](C(=O)Nc1ccc2c(c1)CC(C(=O)Nc1cccc(F)c1)(N1CC3(CC3)CNC1=O)C2)C1CCCCC1` (stereo partly drawn) [Example 200, N-((1S)-1-cyclohexyl-2-((2-((3-fluorophenyl)carbamoyl)-2-(6-oxo-5,7-diazaspiro[2.5]octan-5-yl)-2,3-dihydro-1H-inden-5-yl)amino)-2-oxoethyl)-1-methyl-1H-pyrazole-5-carboxamide], the IC50 was 31.2 nM in assay [1] and 107 nM in assay [2] (Homo sapiens, HT-29, 48 h).

With `CNC(=O)C1(N2C[C@@H](C(C)C)NC2=O)Cc2ccc(NC(=O)C(NC(=O)c3ccnn3C)C3CCc4c(Cl)cccc4C3)cc2C1` (stereo partly drawn) [Example 201, N-(1-(5-chloro-1,2,3,4-tetrahydronaphthalen-2-yl)-2-((2-((R)-4-isopropyl-2-oxoimidazolidin-1-yl)-2-(methylcarbamoyl)-2,3-dihydro-1H-inden-5-yl)amino)-2-oxoethyl)-1-methyl-1H-pyrazole-5-carboxamide], the IC50 in assay [1] worked out at 6.5 nM; in assay [2] (Homo sapiens, HT-29, 48 h), 39.5 nM.

With `CNC(=O)C1(N2CC(C(F)(F)F)NC2=O)Cc2ccc(NC(=O)[C@@H](NC(=O)c3ccnn3C)C3CCCCC3)cc2C1` (stereo partly drawn) [Example 202, N-((1S)-1-cyclohexyl-2-((2-(methylcarbamoyl)-2-(2-oxo-4-(trifluoromethyl)imidazolidin-1-yl)-2,3-dihydro-1H-inden-5-yl)amino)-2-oxoethyl)-1-methyl-1H-pyrazole-5-carboxamide], the IC50 in assay [1] stood at 346 nM; in assay [2] (Homo sapiens, HT-29, 48 h) it was 519 nM.

Turning to `Cc1nonc1C(=O)N[C@H](C(=O)Nc1ccc2c(c1)CC(C(=O)Nc1cccc(F)c1)(N1CC3(CC3)CNC1=O)C2)C1CCC(F)(F)CC1` (stereo partly drawn) [Example 203, N-((1S)-1-(4,4-difluorocyclohexyl)-2-((2-((3-fluorophenyl)carbamoyl)-2-(6-oxo-5,7-diazaspiro[2.5]octan-5-yl)-2,3-dihydro-1H-inden-5-yl)amino)-2-oxoethyl)-4-methyl-1,2,5-oxadiazole-3-carboxamide], the IC50 in assay [1] came out at 63.9 nM; in assay [2] (Homo sapiens, HT-29, 48 h), 135 nM.

`CNC(=O)C1(N2C[C@@H](C(C)C)NC2=O)Cc2ccc(NC(=O)[C@H](Cc3ccc(Cl)cc3)NC(=O)c3ccnn3C)cc2C1` (stereo partly drawn) [Example 204, N-((2S)-3-(4-chlorophenyl)-1-((2-((R)-4-isopropyl-2-oxoimidazolidin-1-yl)-2-(methylcarbamoyl)-2,3-dihydro-1H-inden-5-yl)amino)-1-oxopropan-2-yl)-1-methyl-1H-pyrazole-5-carboxamide]: the IC50 turned out to be 406 nM in assay [1] and 2240 nM in assay [2] (Homo sapiens, HT-29, 48 h).

For the molecule `Cc1nonc1C(=O)N[C@H](C(=O)Nc1ccc2c(c1)CC(c1nc(-c3ccccc3)c[nH]1)(N1CC3(CC3)CNC1=O)C2)C1CCC(F)(F)CC1` (stereo partly drawn) [Example 205, N-((1S)-1-(4,4-difluorocyclohexyl)-2-oxo-2-((2-(6-oxo-5,7-diazaspiro[2.5]octan-5-yl)-2-(4-phenyl-1H-imidazol-2-yl)-2,3-dihydro-1H-inden-5-yl)amino)ethyl)-4-methyl-1,2,5-oxadiazole-3-carboxamide], the IC50 was determined as 246 nM in assay [1] and 193 nM in assay [2] (Homo sapiens, HT-29, 48 h).

Turning to `CC(C)n1nccc1C(=O)N[C@H](C(=O)Nc1ccc2c(c1)CC(c1ncc(-c3ccccc3)[nH]1)(N1CC3(CC3)CNC1=O)C2)C(C1CC1)C1CC1` (stereo partly drawn) [Example 206, N-((2S)-1,1-dicyclopropyl-3-oxo-3-((2-(6-oxo-5,7-diazaspiro[2.5]octan-5-yl)-2-(5-phenyl-1H-imidazol-2-yl)-2,3-dihydro-1H-inden-5-yl)amino)propan-2-yl)-1-isopropyl-1H-pyrazole-5-carboxamide], the IC50 in assay [1] is 270 nM; in assay [2] (Homo sapiens, HT-29, 48 h), 32.5 nM.

Take `CCC(CC)OC(=O)C1(N2CC3(CC3)CNC2=O)Cc2ccc(NC(=O)[C@@H](NC(=O)c3nonc3C)C3CCC(F)(F)CC3)cc2C1` (stereo partly drawn) [Example 207, pentan-3-yl 5-((S)-2-(4,4-difluorocyclohexyl)-2-(4-methyl-1,2,5-oxadiazole-3-carboxamido)acetamido)-2-(6-oxo-5,7-diazaspiro[2.5]octan-5-yl)-2,3-dihydro-1H-indene-2-carboxylate]: the IC50 worked out at 347 nM in assay [1] and 861 nM in assay [2] (Homo sapiens, HT-29, 48 h).

Take `Cc1nonc1C(=O)NC(C(=O)Nc1ccc2c(c1)CC(N1C[C@@H](C(F)(F)F)NC1=O)C2)C1CCc2cc(Cl)ccc2C1` (stereo partly drawn) [Example 208, N-(1-(6-chloro-1,2,3,4-tetrahydronaphthalen-2-yl)-2-oxo-2-((2-((S)-2-oxo-4-(trifluoromethyl)imidazolidin-1-yl)-2,3-dihydro-1H-inden-5-yl)amino)ethyl)-4-methyl-1,2,5-oxadiazole-3-carboxamide]: the IC50 amounted to 718 nM in assay [1] and 2170 nM in assay [2] (Homo sapiens, HT-29, 48 h).

Take `CC(C)[C@@H]1CC(C2Cc3ccc(NC(=O)[C@@H](NC(=O)c4ccnn4C)C4CCCCC4)cc3C2)C(=O)N1` (stereo partly drawn) [Example 209, N-((1S)-1-cyclohexyl-2-((2-((5S)-5-isopropyl-2-oxopyrrolidin-3-yl)-2,3-dihydro-1H-inden-5-yl)amino)-2-oxoethyl)-1-methyl-1H-pyrazole-5-carboxamide]: the IC50 in assay [1] was 1060 nM; in assay [2] (Homo sapiens, HT-29, 48 h) it was 2180 nM.

`Cc1nonc1C(=O)N[C@H](C(=O)Nc1ccc2c(c1)CC(C#N)(N1CC3(CC3)CNC1=O)C2)C1CCC(F)(F)CC1` (stereo partly drawn) [Example 210, N-((1S)-2-((2-cyano-2-(6-oxo-5,7-diazaspiro[2.5]octan-5-yl)-2,3-dihydro-1H-inden-5-yl)amino)-1-(4,4-difluorocyclohexyl)-2-oxoethyl)-4-methyl-1,2,5-oxadiazole-3-carboxamide]: the IC50 in assay [1] is 91.6 nM; in assay [2] (Homo sapiens, HT-29, 48 h), 294 nM.

In the case of `Cc1nonc1C(=O)N[C@H](C(=O)Nc1ccc2c(c1)CC(C1C[C@@H](C(C)C)NC1=O)C2)C(C1CC1)C1CC1` (stereo partly drawn) [Example 211, N-((2S)-1,1-dicyclopropyl-3-((2-((5S)-5-isopropyl-2-oxopyrrolidin-3-yl)-2,3-dihydro-1H-inden-5-yl)amino)-3-oxopropan-2-yl)-4-methyl-1,2,5-oxadiazole-3-carboxamide], the IC50 in assay [1] came to 465 nM; in assay [2] (48 hours), 3680 nM.

Turning to `Cc1nonc1C(=O)N[C@H](C(=O)Nc1ccc2c(c1)CC(C(C)C)(N1CC(C(F)(F)F)NC1=O)C2)C(C1CC1)C1CC1` (stereo partly drawn) [Example 212, N-((2S)-1,1-dicyclopropyl-3-((2-isopropyl-2-(2-oxo-4-(trifluoromethyl)imidazolidin-1-yl)-2,3-dihydro-1H-inden-5-yl)amino)-3-oxopropan-2-yl)-4-methyl-1,2,5-oxadiazole-3-carboxamide], the IC50 in assay [1] was found to be 687 nM; in assay [2] (Homo sapiens, HT-29, 48 h) it was 1030 nM.

As for `Cc1nonc1C(=O)N[C@H](C(=O)Nc1ccc2c(c1)CC(N1C[C@@H](C(F)(F)F)NC1=O)C2)C1CCCCC1` (stereo partly drawn) [Example 213, N-((1S)-1-cyclohexyl-2-oxo-2-((2-((S)-2-oxo-4-(trifluoromethyl)imidazolidin-1-yl)-2,3-dihydro-1H-inden-5-yl)amino)ethyl)-4-methyl-1,2,5-oxadiazole-3-carboxamide], the IC50 in assay [1] was found to be 1760 nM; in assay [2] (Homo sapiens, HT-29, 48 h) it was 4520 nM.

In the case of `Cc1ccccc1NC(=O)C1(N2CC3(CC3)CNC2=O)Cc2ccc(NC(=O)[C@@H](NC(=O)c3nonc3C)C3CCC(F)(F)CC3)cc2C1` (stereo partly drawn) [Example 214, N-((1S)-1-(4,4-difluorocyclohexyl)-2-oxo-2-((2-(6-oxo-5,7-diazaspiro[2.5]octan-5-yl)-2-(o-tolylcarbamoyl)-2,3-dihydro-1H-inden-5-yl)amino)ethyl)-4-methyl-1,2,5-oxadiazole-3-carboxamide], the IC50 in assay [1] was determined as 37.3 nM; in assay [2] (Homo sapiens, HT-29, 48 h), 102 nM.

The values above are taken from patent US20250154138A1, “Small Molecule IL-17A Modulators” (BeiGene, Ltd., priority 2022, published 2025).
